This note sets out measurements from ChEMBL document CHEMBL3045723, “Synthesis of novel 3-(5-sulfanyl-1,3,4-oxadiazol-2-yl)-2H-chromen-2-one condensed s-triazinyl piperazines and piperidines as antimicrobial agents” (2012).

≈ marks a conversion by molar mass, not a printed value.

Holding throughout (assay type): functional
Experiment [1] concerns Bacillus cereus. Nature of the experiment: Antibacterial activity against Bacillus cereus MTCC 619 after 24 hr. The following applies: MTCC 619, 24 h.
Experiment [2] deals with Staphylococcus aureus. Description: Antibacterial activity against Staphylococcus aureus MTCC 96 after 24 hr. As to conditions: MTCC 96, 24 h.
Experiment [3] has as its system Escherichia coli. Description: Antibacterial activity against Escherichia coli MTCC 739 after 24 hr. The following applies: MTCC 739, 24 h.
The subject of experiment [4] is Salmonella typhi. Nature of the experiment: Antibacterial activity against Salmonella enterica subsp. enterica serovar Typhi MTCC 733 after 24 hr by agar disk diffusion test. Background: In agar diffusion tests the substance spreads into inoculated agar from a disc or well.
Experiment [5] has as its system Candida albicans. Description: Antifungal activity against Candida albicans MTCC 183 after 24 hr by agar disk diffusion test.
The test system of experiment [6] is Aspergillus niger. Description: Antifungal activity against Aspergillus niger MTCC 282 after 24 hr by agar disk diffusion test.
The test system of experiment [7] is Klebsiella pneumoniae. Description: Antibacterial activity against Klebsiella pneumoniae MTCC 109 after 24 hr by agar disk diffusion test.
Experiment [8] concerns Staphylococcus aureus. Description: Antibacterial activity against Staphylococcus aureus MTCC 96 after 24 hr by agar disk diffusion test.
Experiment [9] has as its system Klebsiella pneumoniae. Description: Antibacterial activity against Klebsiella pneumoniae MTCC 109 after 24 hr. As to conditions: MTCC 109, 24 h.
Experiment [10] deals with Pseudomonas aeruginosa. Description: Antibacterial activity against Pseudomonas aeruginosa MTCC 741.
In experiment [11] the test system is Candida albicans. Description: Antifungal activity against Candida albicans MTCC 183 after 48 hr. As to conditions: MTCC 183, 48 h.
For experiment [12], the system named is Proteus vulgaris. Description: Antibacterial activity against Proteus vulgaris MTCC 1771 after 24 hr by agar disk diffusion test.
The subject of experiment [13] is Proteus vulgaris. Nature of the experiment: Antibacterial activity against Proteus vulgaris MTCC 1771 after 24 hr. The following applies: MTCC 1771, 24 h.
Experiment [14] deals with Bacillus cereus. Nature of the experiment: Antibacterial activity against Bacillus cereus MTCC 619 after 24 hr by agar disk diffusion test.
Experiment [15] concerns Shigella flexneri. Nature of the experiment: Antibacterial activity against Shigella flexneri after 24 hr.
Experiment [16] deals with Aspergillus niger. Nature of the experiment: Antifungal activity against Aspergillus niger MTCC 282 after 48 hr. The following applies: MTCC 282, 48 h.
The subject of experiment [17] is Pseudomonas aeruginosa. Description: Antibacterial activity against Pseudomonas aeruginosa MTCC 741 after 24 hr by agar disk diffusion test.
The test system of experiment [18] is Salmonella typhi. Description: Antibacterial activity against Salmonella enterica subsp. enterica serovar Typhi MTCC 733 after 24 hr. As to conditions: MTCC 733, 24 h.
The subject of experiment [19] is Shigella flexneri. Nature of the experiment: Antibacterial activity against Shigella flexneri after 24 hr by agar disk diffusion test.
The test system of experiment [20] is Escherichia coli. Description: Antibacterial activity against Escherichia coli MTCC 739 after 24 hr by agar disk diffusion test.

Consider `O=c1oc2ccccc2cc1-c1nnc(Sc2nc(Oc3cccc4cccnc34)nc(N3CCN(c4ccccn4)CC3)n2)o1`, for which the minimum inhibitory concentration (MIC) – broadly, the smallest concentration in the dilution series that meets the test's criterion for growth inhibition – in [1] stood at 50 µg/mL (≈ 79.4 µM); in experiment [2], 50 µg/mL (≈ 79.4 µM); in experiment [3] it was 100 µg/mL (≈ 159 µM); in experiment [9] it was 25 µg/mL (≈ 39.7 µM); in [10] it was 100 µg/mL (≈ 159 µM); in experiment [11], 100 µg/mL (≈ 159 µM). In addition, the MIC in experiment [13] was found to be 100 µg/mL (≈ 159 µM); in experiment [15], 50 µg/mL (≈ 79.4 µM); in experiment [16] it was 100 µg/mL (≈ 159 µM); in [18], 100 µg/mL (≈ 159 µM). Besides, the “inhibition zone (IZ)” value in experiment [4] is 14 mm; in experiment [5], 17 mm; in experiment [6] it was 14 mm; in experiment [7] it was 22 mm; in [8] it was 21 mm; in experiment [12], 14 mm. For the same compound, the “inhibition zone (IZ)” value is reported as 21 mm in [14], 18 mm in experiment [17], 22 mm in [19] and 15 mm in experiment [20].

Regarding `O=c1oc2ccccc2cc1-c1nnc(Sc2nc(Oc3cccc4cccnc34)nc(N3CCC(Cc4ccccc4)CC3)n2)o1`, the MIC in experiment [1], in [2], in experiment [3], in experiment [9], in experiment [10] and in [11] was 100 µg/mL (≈ 156 µM) throughout. Moreover, the minimum inhibitory concentration (MIC) in [13], in [15], in experiment [16] and in experiment [18] was 100 µg/mL (≈ 156 µM) throughout. The “inhibition zone (IZ)” value in experiment [4] is 14 mm; in experiment [5], 13 mm; in experiment [6], less than 10 mm; in experiment [7] it was less than 10 mm; in experiment [8], 16 mm; in [12], less than 10 mm. In addition, the “inhibition zone (IZ)” value in experiment [14] was 13 mm; in experiment [17] it was less than 10 mm; in experiment [19], 11 mm; in experiment [20] it was 12 mm.

Turning to `CCN1CCN(c2nc(Oc3cccc4cccnc34)nc(Sc3nnc(-c4cc5ccccc5oc4=O)o3)n2)CC1`, the MIC in experiment [1], in [2], in experiment [3], in experiment [9], in [10] and in [11] was 100 µg/mL (≈ 172 µM) each time. Moreover, the MIC in [13], in [15], in experiment [16] and in experiment [18] was 100 µg/mL (≈ 172 µM) throughout. The “inhibition zone (IZ)” value in [4] is recorded as 16 mm; in experiment [5] it was 13 mm; in experiment [6] it was less than 10 mm; in experiment [7], 14 mm; in experiment [8] it was 15 mm; in experiment [12], 12 mm. The “inhibition zone (IZ)” value in experiment [14] is 13 mm; in [17], 18 mm; in [19], 20 mm; in [20], 16 mm.

Turning to `O=c1oc2ccccc2cc1-c1nnc(Sc2nc(Oc3cccc4cccnc34)nc(N3CCN(c4cccc(C(F)(F)F)c4)CC3)n2)o1`, the minimal inhibitory concentration (MIC) in [1] was found to be 12.5 µg/mL (≈ 17.9 µM); in experiment [2], 12.5 µg/mL (≈ 17.9 µM); in experiment [3] it was 50 µg/mL (≈ 71.8 µM); in experiment [9], 25 µg/mL (≈ 35.9 µM); in [10], 25 µg/mL (≈ 35.9 µM); in experiment [11] it was 50 µg/mL (≈ 71.8 µM). Besides, the MIC in [13] amounted to 25 µg/mL (≈ 35.9 µM); in experiment [15], 100 µg/mL (≈ 144 µM); in experiment [16], 25 µg/mL (≈ 35.9 µM); in [18], 50 µg/mL (≈ 71.8 µM). The “inhibition zone (IZ)” value in experiment [4] was determined as 21 mm; in [5], 21 mm; in experiment [6], 24 mm; in experiment [7], 21 mm; in [8], 24 mm; in [12], 23 mm. In addition, the “inhibition zone (IZ)” value worked out at 24 mm in [14], 21 mm in experiment [17], 21 mm in experiment [19] and 22 mm in experiment [20].

Take `COc1ccc(CN2CCN(c3nc(Oc4cccc5cccnc45)nc(Sc4nnc(-c5cc6ccccc6oc5=O)o4)n3)CC2)c(OC)c1OC`: the minimum inhibitory concentration (MIC) in [1] came to 12.5 µg/mL (≈ 17.1 µM); in [2], 12.5 µg/mL (≈ 17.1 µM); in experiment [3], 100 µg/mL (≈ 136 µM); in [9], 100 µg/mL (≈ 136 µM); in [10], 12.5 µg/mL (≈ 17.1 µM); in experiment [11], 50 µg/mL (≈ 68.2 µM). The MIC was 100 µg/mL (≈ 136 µM) in [13], 25 µg/mL (≈ 34.1 µM) in experiment [15], 25 µg/mL (≈ 34.1 µM) in experiment [16] and 12.5 µg/mL (≈ 17.1 µM) in experiment [18]. The “inhibition zone (IZ)” value in experiment [4] turned out to be 24 mm; in experiment [5] it was 22 mm; in experiment [6] it was 24 mm; in experiment [7], 18 mm; in [8] it was 23 mm; in experiment [12], 20 mm. In addition, the “inhibition zone (IZ)” value is 23 mm in [14], 22 mm in [17], 23 mm in experiment [19] and 19 mm in experiment [20].

Consider `O=c1oc2ccccc2cc1-c1nnc(Sc2nc(Oc3cccc4cccnc34)nc(N3CCN(c4ccccc4F)CC3)n2)o1`, for which the MIC in experiment [1] is 50 µg/mL (≈ 77.3 µM); in [2], 100 µg/mL (≈ 155 µM); in [3], 25 µg/mL (≈ 38.7 µM); in experiment [9] it was 50 µg/mL (≈ 77.3 µM); in [10], 100 µg/mL (≈ 155 µM); in experiment [11], 100 µg/mL (≈ 155 µM). Also, the MIC in experiment [13] was 25 µg/mL (≈ 38.7 µM); in experiment [15] it was 100 µg/mL (≈ 155 µM); in experiment [16], 100 µg/mL (≈ 155 µM); in [18], 50 µg/mL (≈ 77.3 µM). The “inhibition zone (IZ)” value in [4] amounted to 20 mm; in experiment [5], 19 mm; in experiment [6], 21 mm; in experiment [7], 20 mm; in experiment [8], 19 mm; in experiment [12] it was 22 mm. Also, the “inhibition zone (IZ)” value was found to be 20 mm in experiment [14], 19 mm in experiment [17], 19 mm in experiment [19] and 23 mm in experiment [20].

Consider `O=c1oc2ccccc2cc1-c1nnc(Sc2nc(Oc3cccc4cccnc34)nc(N3CCN(c4ncccn4)CC3)n2)o1`, for which the minimum inhibitory concentration (MIC) stood at 25 µg/mL (≈ 39.6 µM) in experiment [1]; 50 µg/mL (≈ 79.3 µM) in [2]; 100 µg/mL (≈ 159 µM) in experiment [3]; 25 µg/mL (≈ 39.6 µM) in [9]; 100 µg/mL (≈ 159 µM) in experiment [10]; 100 µg/mL (≈ 159 µM) in [11]. The minimal inhibitory concentration (MIC) is 100 µg/mL (≈ 159 µM) in experiment [13], 50 µg/mL (≈ 79.3 µM) in experiment [15], 100 µg/mL (≈ 159 µM) in experiment [16] and 100 µg/mL (≈ 159 µM) in [18]. In addition, the “inhibition zone (IZ)” value in experiment [4] was found to be 18 mm; in experiment [5], 17 mm; in experiment [6] it was 16 mm; in experiment [7], 22 mm; in experiment [8], 21 mm; in experiment [12], 16 mm. Besides, the “inhibition zone (IZ)” value in [14] worked out at 22 mm; in [17], 18 mm; in experiment [19], 22 mm; in experiment [20] it was 19 mm.
